Results reported in patent US4868195A, “Novel enolamides, pharmaceutical compositions and methods of use thereof for activity as modulators of the arachidonic acid cascade” (Warner-Lambert Company, priority 1988, dated 1989).
Where “and” joins values, the source holds several entries; their conditions need not be identical. Equal values may be shown once.

Tests used:
[1] = target: T1, leukotriene receptor (guinea pig lung membranes) (Cavia porcellus, UniProt Q2NNR5); experiment: Binding of ^3 H-Leukotriene D4 to Guinea Pig Lung Membranes (RBL); conditions: 0.2 nM ^3 H-LTD4, 60 min, 25° C.; read-out: Concentration (M) for 50.0 % Inhibition, IC (RBL)
T1 construct: 20 mg original tissue wet weight of guinea pig lung; tissue Kuiper Rabbit Farm, Gary, IN (animals); host or cells: guinea pig lung, crude membranes
T1 sequence (Q2NNR5 1-340): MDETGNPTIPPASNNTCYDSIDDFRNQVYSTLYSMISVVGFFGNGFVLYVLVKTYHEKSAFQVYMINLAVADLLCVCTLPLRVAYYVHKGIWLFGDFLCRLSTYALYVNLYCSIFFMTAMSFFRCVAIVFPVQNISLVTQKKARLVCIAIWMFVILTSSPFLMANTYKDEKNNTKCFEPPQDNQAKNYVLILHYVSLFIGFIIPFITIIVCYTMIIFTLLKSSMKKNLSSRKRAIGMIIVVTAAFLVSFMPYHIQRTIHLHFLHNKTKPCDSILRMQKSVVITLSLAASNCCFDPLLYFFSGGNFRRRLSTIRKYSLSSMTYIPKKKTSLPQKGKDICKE
Procedure: Additionally, the activity, of the compounds having the Formula I of the present invention is determined by the well known leukotriene receptor binding assay that is described by R. F. Bruns, W. J. Thomsen and T. A. Pugsley in Life Sciences, 33, 645 (1983) or the Herxheimer in vivo antiallergy test described in H. Herxheimer, J. Physiol. (London), Vol. 177, p. 251 (1952).
Binding of ^3 H-Leukotriene D4 to Guinea Pig Lung Membranes (RBL)
[14,15-^3 H]leukotriene D4 (^3 H-LTD4) (25 Ci/mmol and 40 Ci/mmol) is purchased from New England Nuclear. Unlabeled LTC4 is a gift of Ono Pharmaceuticals (Japan). LTC4, LTD4, and LTE4 are purchased as methyl esters from Paesel GmbH (Frankfurt, W. Germany). Concentrations of the Paesel leukotrienes are calculated from their absorbance at 280 nm. Leukotriene esters are saponified overnight under N2 in 3.3% potassium carbonate at room temperature. Tritiated leukotrienes are stored as received from New England Nuclear at -20° C. Ono LTC4 (5 μg/ml) is stored at -60° C. in phosphate buffer pH 6.8. Saponified Paesel leukotrienes are stored at -60° C. in 3.3% potassium carbonate (pH 9.0-9.5). Aliquots of leukotrienes are taken from stock solutions immediately after thawing, after which the stock solutions are immediately refrozen. 2-Amino-2-(hydroxymethyl)-1,3-propanediol (Tris) is Sigma pH 7.7 pre-set crystals, and dimethylsulfoxide is Aldrich Gold Label.
Preparation of crude lung membranes
Two pairs of lungs (1.3 g) from freshly sacrificed 300 g male guinea pigs (older animals gave substantially lower binding) from Kuiper Rabbit Farm, Gary, IN are disrupted with a Polytron PT 10 (setting 4) for 30 seconds in 20 ml ice-cold 50 mM Tris adjusted with HCl to pH 7.7 at 25° C. (Tris buffer), filtered through a single layer of gauze to remove connective tissue, and centrifuged at 50,000 xg for ten min. The pellet is resuspended by homogenization with a Polytron in 20 ml Tris buffer, centrifuged at 50,000 xg for ten min., resuspended, incubated at 37° C. for 30 minutes, and centrifuged again. The final pellet is resuspended in Tris buffer and either used fresh or stored at -70° C.
All incubations are in triplicate for 60 minutes at 25° C. in 12×75 mm polystyrene tubes containing 1 ml Tris buffer with 20 mg original tissue wet weight of guinea pig lung nmembranes, 0.2 nM ^3 H-LTD4 (6,000-11,000 cpm), 10 mM MgCl2, and 1% dimethylsulfoxide Leukotrienes are diluted in Tris buffer. All other test compounds dissolved at 10 mM in dimethylsulfoxide on the same day as the experiment, and diluted in dimethylsulfoxide to 100× the final incubation concentration. Control incubations receive an equal volume (10 μl) of dimethylsulfoxide; the resulting concentration of dimethylsulfoxide had no effect on binding. ^3 H-LTD4 is diluted to 2 nM in Tris buffer. The membrane suspension (20 mg/0.89 ml) contains sufficient MgCl2 to give 10 mM final concentration in the incubation. […] All additions are performed at 0° C. Immediately after the last addition, the incubation is initiated by agitating the rack of tubes on a vortex mixer and warming to 25° C. in a water bath. Tubes are vortexed at least once more during the incubation to ensure that the membranes remained suspended. Incubations are terminated after 60 minutes by filtering under reduced pressure through 25 mm Whatman GF/B filters followed by rapid washing three times with 4 ml of ice-cold Tris buffer. Filters are added to scintillation vials with 8 ml Formula 947 (New England Nuclear), left overnight, shaken, and the radioactivity counted in a scintillation counter (efficiency 40%). Nonspecific binding, defined as binding of ^3 H-LTD4 in the presence of 100 nM LTC4, is 300-500 cpm for all lots of ^3 H-LTD4. Binding to the filters in the absence of tissue is about 100 cpm, and is not affected by unlabeled LTC4. Specific binding, defined as total binding minus nonspecific binding, varied considerably from lot to lot of ^3 H-LTD4. […]

[2] = target: Human Leukocyte Lipoxygenase; experiment: Human Leukocyte Lipoxygenase Assay (LDA-H); assay type: biochemical; conditions: for IC50: acetone-pentane powder enzyme, 234 nm, 24° C., 5 min preincubation, read-out: Concentration (M) for 50.0 % Inhibition, IC (LDAH)
Procedure: Human Leukocyte Lipoxygenase Assay (LDA-H)
Whole blood is collected from normal volunteers and spun in a refrigerated centrifuge for four minutes at 1°-6° C. at 3800 g. The buffy coat is manually separated and washed twice with chilled 0.83% NH4 Cl and centrifuged at 1000 RPM for ten minutes at 4° C. The white cell is suspended in culture media-EMEM supplemented with 6% Agamma human serum, tricine buffer, and neomycin and recentrifuged at 1000 g to yield a pellet containing the leukocytes used for the preparation of the acetone pentane powder.
The acetone-pentane powder is prepared utilizing a modification of the procedure reported for human platelet lipoxygenase. See Siegel, et al, Arachidonate Metabolism via Lipoxygenase and 12-L-hydroperoxy-5 Eicosatetraenoic Acid Peroxidase Sensitive to Antiinflammatory Drugs, Proc. Natl. Acad. Sci., USA 77: 308, 1980 and D. P. Wallach and V. R. Brown, A Novel Preparation of Human Platlet Lipoxygenase, Biochem. Biophys. Acta. 663: 361, 1981. Buffy coat prepared above is resuspended in 5-7 volumes of cold 0.1M Tris buffer, pH 7.4 containing 0.154M NaCl. The suspension is centrifuged at 13,300 g for ten minutes at 4° C. The resultant pellet is retained, resuspended in five volumes of cold acetone, recentrifuged at 13,300 g and resuspended in five volumes of cold pentane. The pentane suspension is centrifuged for ten minutes at 13,300 g to give a pellet which is dried in the cold under vacuum with periodic pulverization. The dry powder is stable for several weeks when stored at -80° C.
Enzyme stock solution is prepared in the following manner. About 15 mg of the acetone-pentane powder is suspended in 4 ml of cold tris buffer (0.1M, pH 7.4), allowed to stand for five minutes, and homogenized thoroughly. The homogenate is sonicated three times for 15 seconds each time, diluted to 7 ml with cold tris buffer (0.1M, pH 7.4), and centrifuged at 4° C. for 60 minutes at 13,300 g. the supernatent is retained and diluted to a total of 10 ml with cold tris buffer (0.1M, pH 7.4) to give the stock enzyme solution. Additional dilutions of 2-50 fold are done as necessary to locate optimal enzyme reaction rate in the assay described below.
Substrate solution is prepared at 100 μM or 1.0 μM concentrations of arachidonic acid or linoleic acid in 0.1M tris buffer, pH 9.0 containing 20% ethanol.
The enzyme reaction is followed spectrophotometrically by the appearance of a conjugated diene product at 234 nm. The reaction is monitored at 24° C. using a Gilford Model 2600 spectrophotometer. […] The effects of inhibitors on the reaction are compared with control reactions run under indentical conditions. Routinely, each compounds of the present invention is incubated with the enzyme for five minutes prior to addition of substrate to initiate the reaction. Inhibition expressed as IC50 as molar concentration of the compound required to reduce reaction rate to 50% control.

IC50 [1]	IC50 [2] [M]	% Inhibition (LDAH) ([2]; Concentration 8.00 E -5 M) [%]	% Inhibition (LDAH) ([2]; Concentration 2.50 E -5 M) [%]	SMILES
3.64e-06 M	1.1e-06			O=C(Nc1ccc(CCc2ccc(Cl)c(Cl)c2)cc1)C1CS(=O)(=O)c2ccccc2C1=O (centres unmarked) [Example 11, N-[4-[2-(3,4-Dichlorophenyl)ethyl]phenyl]-3,4-dihydro-4-oxo-2H-1-benzothiopyran-3-carboxamide, 1,1-dioxide]
8.2e-05 M	2.5e-05			O=C(Nc1ccc(CCc2cc(O)cc(O)c2)cc1)C1=C(O)c2ccccc2S(=O)(=O)C1 [Example 33, N-[4-[2-(3,5-Dihydroxyphenyl)ethyl]phenyl]-4-hydroxy-2H-1-benzothiopyran-3-carboxamide, 1,1-dioxide]
1.9e-05 M		0.0		COc1ccccc1CCc1ccc(NC(=O)C2=C(O)c3ccccc3S(=O)(=O)C2)cc1 [Example 37, 4-Hydroxy-N-8 4-[2-(2-methoxyphenyl)ethyl]phenyl-2H-1-benzothiopyran-3-carboxamide, 1,1-dioxide]
6.68e-06 M			0.0	O=C(Nc1ccc(CCc2ccccc2O)cc1)C1=C(O)c2ccccc2S(=O)(=O)C1 [Example 38]
2.48e-05 M	5.7e-05			COc1cccc(CCc2ccc(NC(=O)C3CS(=O)(=O)c4ccccc4C3=O)cc2)c1 (centres unmarked) [Example 39]
5.6e-05 M	8.2e-05			O=C(Nc1ccc(CCc2ccc(O)cc2)cc1)C1CS(=O)(=O)c2ccccc2C1=O (centres unmarked) [Example 40]
2.06e-05 M		0.0		Cc1ccccc1CCc1ccc(NC(=O)C2=C(O)c3ccccc3S(=O)(=O)C2)cc1 [Example 43]
3.02e-06 M			0.0	O=C(Nc1ccc(CCc2ccc(C(F)(F)F)cc2)cc1)C1CS(=O)(=O)c2ccccc2C1=O (centres unmarked) [Example 44]
9.44e-06 M		0.0		Cc1ccc(CCc2ccc(NC(=O)C3CS(=O)(=O)c4ccccc4C3=O)cc2)cc1 (centres unmarked) [Example 45]
1.11e-05 M		0.0		CCOC(=O)c1ccc(CCc2ccc(NC(=O)C3CS(=O)(=O)c4ccccc4C3=O)cc2)cc1 (centres unmarked) [Example 47, 4-[2-[4-[[(3,4-Dihydro-4-oxo-2H-1-benzothiopyran-3-yl)carbonyl]amino]pheyl]ethyl]benzoic acid, ethyl ester, 1,1-dioxide]
0.000149 M	3.5e-05			CC(=O)Nc1ccc(CCc2ccc(NC(=O)C3CS(=O)(=O)c4ccccc4C3=O)cc2)cc1 (centres unmarked) [Example 49]
8.47e-06 M		0.0		CCCCCCc1ccc(NC(=O)C2CS(=O)(=O)c3ccccc3C2=O)cc1 (centres unmarked) [Example 58, N-(4-Hexylphenyl)-3,4-dihydro-4-oxo-2H-1-benzothiopyran-3-carboxamide, 1-1-dioxide]
7.29e-06 M			0.0	CCCCCCCCc1ccc(NC(=O)C2CS(=O)(=O)c3ccccc3C2=O)cc1 (centres unmarked) [Example 59, 3,4-Dihydro-N-(4-octylphenyl)-4-oxo-2H-1-benzothiopyran-3-carboxamide, 1,1-dioxide]
2e-05 M and 2.05e-05 M	1e-06			CCCCCCCCCCCCc1ccc(NC(=O)C2CS(=O)(=O)c3ccccc3C2=O)cc1 (centres unmarked) [Example 61, N-(4-Dodecylphenyl)-3,4-dihydro-4-oxo-2H-1-benzothiopyran-3-carboxamide, 1,1-dioxide]
7.46e-06 M	0.0002			O=C(Nc1ccc(CCc2cc(Cl)cc(Cl)c2)cc1)C1=C(O)c2ccccc2S(=O)(=O)C1 [Example 71, 2H-1-Benzothiopyran-3-carboxamide, N-[4-[2-(3,5-dichlorophenyl)ethyl]phenyl]-4-hydroxy-, 1,1-dioxide]
3.5e-06 M	2.6e-06			O=C(Nc1ccc(CCc2ccc(Cl)cc2Cl)cc1)C1=C(O)c2ccccc2S(=O)(=O)C1 [Example 72, 2H-1-Benzothiopyran-3-carboxamide, N-[4-[2-(2,4-dichlorophenyl)ethyl]phenyl]-4-hydroxy-1,1-dioxide]
3.95e-05 M		0.0		O=C(Nc1ccc(CCc2cccc(O)c2)cc1)C1CS(=O)(=O)c2ccccc2C1=O (centres unmarked) [Example 82]
6.88e-05 M	8.2e-06			O=C(Nc1ccc(CCc2ccc(O)c(O)c2)cc1)C(=O)c1sc2ccccc2c1O [Example 134, N-[4-[2-(3,4-Dihydroxyphenyl)ethyl]phenyl]-3-hydroxy-α-oxo-benzo[b]thiophene-2-acetamide]
0.000113 M	3.3e-05			O=C(Nc1ccc(CCc2ccc(O)c(O)c2)cc1)C(=O)c1sc2ccc(Cl)cc2c1O [Example 138, Benzo[b]thiophene-2-acetamide, 5-chloro-N-[4-[2-(3,4-dihydroxyphenyl)ethyl]phenyl]-3-hydroxy-α-oxo]
